For 32 compounds, MIC results are on record in patent US7223759B2, “Antibacterial 3,5-diaminopiperidine-substituted aromatic and heteroaromatic compounds” (Anadys Pharmaceuticals, Inc., priority 2003, dated 2007).

The first assay deals with Escherichia coli (ATCC25922) or Staphylococcus aureus (ATCC25923). Put plainly: Antibacterial MIC, microdilution method in Mueller-Hinton medium. The format is cell-based. As to conditions: Escherichia coli, 18 h, MIC in E. coli or S. aureus; two-fold serial dilutions 64 to 0.5 μg/ml in duplicate; 18 hours of incubation at 35° C.; read-out: Potency (MIC). Put shortly:
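Read after 18 h incubation at 35° C, MIC is the lowest compound level that blocked growth. Compounds were tested in duplicate over 64–0.5 μg/ml two-fold dilutions using Mueller-Hinton microdilution per NCCLS standard.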
In general, MIC refers to the smallest concentration in the dilution series that meets the test's criterion for growth inhibition. For `Cl.Nc1ccc(Nc2nc(N3C[C@H](N)C[C@H](N)C3)nc(N3C[C@H](N)C[C@H](N)C3)n2)cc1` [N-(4-amino-phenyl)-4,6-Biss-((3R,5S)-3,5-diamino-piperidin-1-yl)-[1,3,5]triazine-2-amine], the MIC is greater than 64 µg/mL. `Cc1cc(NC(=O)c2ccccc2)c(Cl)cc1Nc1nc(N2CCCCC2)nc(N2CCCCC2)n1` [N-(4-benzoylamino-5-chloro-23-methyl-phenyl)-4,6-Bis((3R,5S)-3,5-diamino-piperidin-1-yl)-[1,3,5]triazine-2-amine]: the MIC is greater than 64 µg/mL. On the same count and under the same terms, under `N[C@@H]1C[C@H](N)CN(c2nc(Nc3ccc(Br)cc3)nc(N3C[C@H](N)C[C@H](N)C3)n2)C1` [N-(4-bromo-phenyl)-4,6-Bis-((3R,5S)-3,5-diamino-piperidin-1-yl)-[1,3,5]triazine-2-amine] stands greater than 64 µg/mL; under `Cl.NC(=O)c1ccc(Nc2nc(N3C[C@H](N)C[C@H](N)C3)nc(N3C[C@H](N)C[C@H](N)C3)n2)cc1` [N-(4-carbamoyl-phenyl)-4,6-Bis-((3R,5S)-3,5-diamino-piperidin-1-yl)-[1,3,5]triazine-2-amine], greater than 64 µg/mL. On to `Cc1cc(Cl)ccc1CNc1nc(N2CCCCC2)nc(N2CCCCC2)n1.Cl` [N-(4-chloro-2-methyl-benzyl)-44,6-Bis-((3R,5S)-3,5-diamino-piperidin-1-yl)-[1,3,5]triazine-2-amine], for which the MIC was greater than 64 µg/mL.

`Cl.N[C@@H]1C[C@H](N)CN(c2nc(Nc3ccc(O)c4ccccc34)nc(N3C[C@H](N)C[C@H](N)C3)n2)C1` [N-(4-hydroxy-naphthalen-1-yl)-4,6-Bis-((3R,5S)-3,5-diamino-piperidin-1-yl)-[1,3,5]triazine-2-amine]: the MIC is less than 16 µg/mL. The same measure, in the same setting: under `N[C@@H]1C[C@H](N)CN(c2nc(Nc3ccc(O)cc3)nc(N3C[C@H](N)C[C@H](N)C3)n2)C1` [N-(4-hydroxy-phenyl)-4,6-Bis-((3R,5S)-3,5-diamino-piperidin-1-yl)-[1,3,5]triazine-2-amine] stands greater than 64 µg/mL; under `COc1ccc(-c2ccccc2)cc1Nc1nc(N2C[C@H](N)C[C@H](N)C2)nc(N2C[C@H](N)C[C@H](N)C2)n1` [N-(4-methoxy-biphenyl-3-yl)-4,6-Bis-((3R,5S)-3,5-0diamino-piperidin-1-yl)-[1,3,5]triazine-2-amine], less than 64 µg/mL.

As for `Cc1csc(Nc2nc(N3C[C@H](N)C[C@H](N)C3)nc(N3C[C@H](N)C[C@H](N)C3)n2)n1.Cl` [N-(4-methyl-thiazol-2-yl)-4,6-Bis-((3R,5S)-3,5-diamino-piperidin-1-yl)-[1,3,5]triazine-2-amine], the MIC was greater than 64 µg/mL.

As to `N[C@@H]1C[C@H](N)CN(c2nc(Nc3ccc(Nc4ccccc4)cc3)nc(N3C[C@H](N)C[C@H](N)C3)n2)C1` [N-(4-phenylamino-phenyl)-4,6-Bis((3R,5S)-3,5-diamino-piperidin-1-yl)-[1,3,5]triazine-2-amine], the MIC is less than 64 µg/mL. The same measure, in the same setting: as for `N[C@@H]1C[C@H](N)CN(c2nc(Nc3ccc(C(=O)Nc4ccccc4)cc3)nc(N3C[C@H](N)C[C@H](N)C3)n2)C1` [N-(4-phenylcarbamoyl-phenyl)-4,6-Bis-((3R,5S)-3,5-diamino-piperidin-1-yl)-[1,3,5]triazine-2-amine], the figure is greater than 64 µg/mL; as for `N=C(N)Nc1ccc(Nc2nc(N3CCCCC3)nc(N3CCCCC3)n2)cc1` [N-(4-quanidino-phenyl)-4,6-Bis-((3R,5S)-3,5-diamino-piperidin-1-yl)-[1,3,5]triazine-2-amine], less than 64 µg/mL.

The same assay, now with this note: Escherichia coli, 18 h, read-out: Potency (MIC).
With `CC(=O)Nc1ccc(Nc2nc(N3C[C@H](N)C[C@H](N)C3)nc(N3C[C@H](N)C[C@H](N)C3)n2)cc1O` [N-(4-acetylamino-3-hydroxy-phenyl)-4,6-Bis-((3R,5S)-3,5-diamino-piperidin-1-yl)-[1,3,5]triazine-2-amine], the MIC was greater than 64 µg/mL. With `Nc1ccc(Nc2nc(N3C[C@H](N)C[C@H](N)C3)nc(N3C[C@H](N)C[C@H](N)C3)n2)cc1OCc1ccccc1` [N-(4-amino-3-benzyloxy-phenyl)-4,6-Bis-((3R,5S)-3,5-diamino-piperidin-1-yl)-[1,3,5]triazine-2-amine], the MIC was greater than 64 µg/mL.

With `N[C@@H]1C[C@H](N)CN(c2nc(Nc3ccc(NS(=O)(=O)c4ccccc4)c(O)c3)nc(N3C[C@H](N)C[C@H](N)C3)n2)C1` [N-(4-benzenesulfonylamino-3-hydroxy-phenyl)-4,6-Bis-((3R,5S)-3,5-diamino-piperidin-1-yl)-[1,3,5]triazine-2-amine], the MIC is less than 64 µg/mL. Take `N[C@@H]1C[C@H](N)CN(c2nc(Nc3ccc(C(=O)c4ccccc4)cc3)nc(N3C[C@H](N)C[C@H](N)C3)n2)C1` [N-(4-benzoyl-phenyl)-4,6-Bis-((3R,5S)-3,5-diamino-piperidin-1-yl)-[1,3,5]triazine-2-amine]: the MIC is less than 64 µg/mL.

Consider `N[C@@H]1C[C@H](N)CN(c2nc(Nc3ccc(NC(=O)c4ccccc4)c(O)c3)nc(N3C[C@H](N)C[C@H](N)C3)n2)C1` [N-(4-benzoylamino-3-hydroxy-phenyl)-4,6-Bis-((3R,5S)-3,5-diamino-piperidin-1-yl)-[1,3,5]triazine-2-amine], for which the MIC is less than 16 µg/mL.

Take `Cc1cc(Br)ccc1Nc1nc(N2C[C@H](N)C[C@H](N)C2)nc(N2C[C@H](N)C[C@H](N)C2)n1` [N-(4-bromo-2-methyl-phenyl)-4,6-Bis-((3R,5S)-3,5-diamino-piperidin-1-yl)-[1,3,5]triazine-2-amine]: the MIC was greater than 64 µg/mL.

On to `CCCC(=O)Nc1ccc(Nc2nc(N3C[C@H](N)C[C@H](N)C3)nc(N3C[C@H](N)C[C@H](N)C3)n2)cc1O` [N-(4-butyrylamino-3-hydroxy-phenyl)-4,6-Bis-((3R,5S)-3,5-diamino-piperidin-1-yl)-[1,3,5]triazine-2-amine], for which the MIC is greater than 64 µg/mL. `N[C@@H]1C[C@H](N)CN(c2nc(Nc3ccc(-n4c5ccccc5c5ccccc54)cc3)nc(N3C[C@H](N)C[C@H](N)C3)n2)C1` [N-(4-carbazol-9-yl-phenyl)-4,6-Bis-((3R,5S)-3,5-diamino-piperidin-1-yl)-[1,3,5]triazine-2-amine]: the MIC is less than 16 µg/mL. The same measure, in the same setting: under `CCCCCCCCCC(=O)Nc1ccc(Nc2nc(N3C[C@H](N)C[C@H](N)C3)nc(N3C[C@H](N)C[C@H](N)C3)n2)cc1O` [N-(4-decanoylamino-3-hydroxy-phenyl)-4,6-Bis-((3R,5S)-3,5-diamino-piperidin-1-yl)-[1,3,5]triazine-2-amine] stands less than 16 µg/mL. Take `CCN(CC)c1ccc(Nc2nc(N3C[C@H](N)C[C@H](N)C3)nc(N3C[C@H](N)C[C@H](N)C3)n2)cc1` [N-(4-diethylamino-phenyl)-4,6-Bis-((3R,5S)-3,5-diamino-piperidin-1-yl)-[1,3,5]triazine-2-amine]: the MIC was greater than 64 µg/mL. Same read-out and setting: as for `CCCCCC(=O)Nc1ccc(Nc2nc(N3C[C@H](N)C[C@H](N)C3)nc(N3C[C@H](N)C[C@H](N)C3)n2)cc1O` [N-(4-hexanoylamino-3-hydroxy-phenyl)-4,6-Bis-((3R,5S)-3,5-diamino-piperidin-1-yl)-[1,3,5]triazine-2-amine], the figure is less than 16 µg/mL; as for `CCCCCCOc1ccc(Nc2nc(N3C[C@H](N)C[C@H](N)C3)nc(N3C[C@H](N)C[C@H](N)C3)n2)cc1` [N-(4-hexyloxy-phenyl)-4,6-Bis-((3R,5S)-3,5-diamino-piperidin-1-yl)-[1,3,5]triazine-2-amine], less than 16 µg/mL; as for `COc1ccc(Nc2nc(N3C[C@H](N)C[C@H](N)C3)nc(N3C[C@H](N)C[C@H](N)C3)n2)c([N+](=O)[O-])c1` [N-(4-methoxy-2-nitro-phenyl)-4,6-Bis-((3R,5S)-3,5-diamino-piperidin-1-yl)-[1,3,5]triazine-2-amine], greater than 64 µg/mL. For `COc1ccc(Nc2nc(N3C[C@H](N)C[C@H](N)C3)nc(N3C[C@H](N)C[C@H](N)C3)n2)cc1` [N-(4-methoxy-phenyl)-4,6-Bis-((3R,5S)-3,5-diamino-piperidin-1-yl)-[1,3,5]triazine-2-amine], the MIC was greater than 64 µg/mL. Still for that read-out and setting: under `Cc1cc(=O)oc2cc(Nc3nc(N4C[C@H](N)C[C@H](N)C4)nc(N4C[C@H](N)C[C@H](N)C4)n3)ccc12` [N-(4-methyl-2-oxo-2H-chromen-7-yl)-4,6-Bis-((3R,5S)-3,5-diamino-piperidin-1-yl)-[1,3,5]triazine-2-amine] stands less than 16 µg/mL; under `CSc1ccc(CNc2nc(N3C[C@H](N)C[C@H](N)C3)nc(N3C[C@H](N)C[C@H](N)C3)n2)cc1` [N-(4-methylsulfanyl-benzyl)-4,6-Bis-((3R,5S)-3,5-diamino-piperidin-1-yl)-[1,3,5]triazine-2-amine], less than 64 µg/mL.

As to `N[C@@H]1C[C@H](N)CN(c2nc(Nc3ccc(N4CCOCC4)cc3)nc(N3C[C@H](N)C[C@H](N)C3)n2)C1` [N-(4-morpholin-4-yl-phenyl)-4,6-Bis-((3R,5S)-3,5-diamino-piperidin-1-yl)-[1,3,5]triazine-2-amine], the MIC is greater than 64 µg/mL.

In the case of `N[C@@H]1C[C@H](N)CN(c2nc(Nc3ccc([N+](=O)[O-])cc3)nc(N3C[C@H](N)C[C@H](N)C3)n2)C1` [N-(4-nitro-phenyl)-4,6-Bis-((3R,5S)-3,5-diamino-piperidin-1-yl)-[1,3,5]triazine-2-amine], the MIC is less than 64 µg/mL.

On to `N[C@@H]1C[C@H](N)CN(c2nc(NCc3ccc(Oc4ccccc4)cc3)nc(N3C[C@H](N)C[C@H](N)C3)n2)C1` [N-(4-phenoxy-benzyl)-4,6-Bis-((3R,5S)-3,5-diamino-piperidin-1-yl)-[1,3,5]triazine-2-amine], for which the MIC is greater than 64 µg/mL. `N[C@@H]1C[C@H](N)CN(c2nc(Nc3ccc(S(N)(=O)=O)cc3)nc(N3C[C@H](N)C[C@H](N)C3)n2)C1` [N-(4-sulfamoyl-phenyl)-4,6-Bis-((3R,5S)-3,5-diamino-piperidin-1-yl)-[1,3,5]triazine-2-amine]: the MIC was greater than 64 µg/mL.
